We go through eleven molecules from PMC6838048, “A Cell-Free Approach Based on Phospholipid Characterization for Determination of the Cell Specific Unbound Drug Fraction (fu,cell)” (Pharmaceutical Research, 2019).

Format in all cases: in vitro ADME
Series [1] is described as follows: fu,cell by equilibrium dialysis of cell homogenate, HEK293. The note with it: human, dialysis 4 h 37°C, 10 million cells/mL homogenate, read-out: fu,HEK293 Geomean. How it is done: (§1) fu,cell was measured in cassette-mode as previously described with minor modifications ([9]). Briefly, 10 million cells/mL were suspended in HBSS buffered with 10 mM HEPES and homogenized on ice by sonication (VCX 750 Sonicator, 3 mm probe, 20% intensity, 10 s). Up to 8 compounds were combined randomly and spiked into the homogenate for a final concentration of 0.5 μM. Equilibrium dialysis was performed in a Rapid Equilibirum device (Thermo Fisher Scientific) against blank HBSS buffered with 10 mM HEPES, for 4 h at 37°C on an orbital shaker at 900 rpm. Stability controls were kept at 4° and 37°C for the duration of the experiment. The concentration in both dialysis chambers was quantified by extracting the compound with acetonitrile/water (60/40) containing internal standard. Matrixes were matched with blank buffer or cell homogenate, respectively. LC-MS/MS parameters are available in Table S9. All experiments were carried out in triplicates and at least at two independent occasions.
(§2) The unbound fraction in the cell homogenate (fu,hom) was determined according to Eq. (1):1 fu,hom=Cbuffer/Chom and the fraction of unbound compound in the cell (fu,cell) was calculated by correcting for homogenate dilution according to Eq. (2):2 fu,cell=1/DP∙1/fu,hom−1+1 where the dilution constant DP was calculated using Eq. (3), assuming the Vcell to be equal to 6.5 μL/mg protein ([6],[10]). Protein content in the cell homogenates was determined at each experiment using the BCA Protein Assay Reagent Kit (Thermo Fisher Scientific Inc.).3 DP=1/Vcell
In general terms: Equilibrium dialysis compares concentrations on both sides of a semipermeable membrane.

The nature of series [2]: fu,cell by equilibrium dialysis of cell homogenate, HL60. The note with it: human, dialysis 4 h 37°C, 10 million cells/mL homogenate, read-out: fu,HL60 Geomean. Here is the method:
as §1, §2

Series [3] is described as follows: fu,cell by equilibrium dialysis of cell homogenate, Caco-2. The conditions noted are these: human, Caco-2 cell homogenate, dialysis 4 h 37°C, 10 million cells/mL homogenate, read-out: fu,Caco-2 Geomean. Here is the method:
as §1
(§3) (3), assuming the Vcell to be equal to 6.5 μL/mg protein ([6],[10]). Protein content in the cell homogenates was determined at each experiment using the BCA Protein Assay Reagent Kit (Thermo Fisher Scientific Inc.).3 DP=1/Vcell

Series [4] in a line: fu,cell by equilibrium dialysis of cell homogenate, LLC-PK1. The conditions noted are these: pig, dialysis 4 h 37°C, 10 million cells/mL homogenate, read-out: fu,LLCPK1 Geomean. How it is done: as §1, §2
The nature of series [5]: fu,cell by equilibrium dialysis of cell homogenate, A549. The conditions noted are these: human, dialysis 4 h 37°C, 10 million cells/mL homogenate, read-out: fu,A549 Geomean. How it is done:
as §1, §2

Series [6] in a line: fu,cell by equilibrium dialysis of cell homogenate, K562. The note with it: human, dialysis 4 h 37°C, 10 million cells/mL homogenate, read-out: fu,K562 Geomean. Here is the method:
as §1, §2

Series [7] in a line: fu,cell by equilibrium dialysis of cell homogenate, MDCK. The note with it: dog, dialysis 4 h 37°C, 10 million cells/mL homogenate, read-out: fu,MDCK Geomean. Here is the method: as §1, §3
A short description of series [8]: fu,PL from membrane affinity to PL-covered silica beads, PC. The conditions noted are these: silica beads covered with phosphatidylcholine (PC), Transil; beads coated with pure PC, 15 min incubation; read-out: fu,PC Geomean. How it is done:
(§4) f u,PL was derived from membrane affinity measurements to beads covered with PLs as previously described ([6]).
(§5) Cbuffer was quantified by LC-MS/MS in samples of the supernatant that was obtained after 15 min incubation time on an orbital shaker at 1000 rpm and subsequent separation from the beads by centrifugation at 750 x g. […] Unspecific binding was evaluated by incubations into wells without added lipids.

Series [9] can be described thus: fu,PL from membrane affinity to PL-covered silica beads, PS. The note with it: silica beads covered with phosphatidylserine (PS), Transil; beads coated with pure PS, 15 min incubation; read-out: fu,PS Geomean. Here is the method: as §4, §5
A short description of series [10]: fu,PL from membrane affinity to PL-covered silica beads, PE. The conditions noted are these: beads coated with pure PE, 15 min incubation; read-out: fu,PE Geomean. Here is the method:
as §4, §5

Series [11] in a line: fu,PL from membrane affinity to PL-covered silica beads, mixed beads. The note with it: for fraction unbound at 15 min: mixed beads PC:PE:PS:PI 52:22:12:14 mol%, 15 min incubation, read-out: fu,mixed bead Geomean. How it is done: as §4, §5
A short description of series [12]: fu,cell by equilibrium dialysis of cell homogenate, primary human hepatocytes. The conditions noted are these: primary human hepatocyte homogenate, dialysis 4 h 37°C, 10 million cells/mL homogenate, read-out: fu,HH Geomean. Here is the method:
as §1, §2

As for `COC(=O)CCc1ccc(OCC(O)CNC(C)C)cc1` (centres unmarked) [Esmolol], the fraction unbound at 4 h, 0.5 μM was 0.196 in [1]; 0.676 in series [2]; 0.566 in series [3]; 0.566 in series [4]; 0.922 in series [5]; 1 in series [6]. Moreover, the fraction unbound at 4 h, 0.5 μM in series [7] worked out at 0.35. In addition, the fraction unbound at 15 min in series [8] amounted to 0.008; in series [9] it was 0.0019; in [10], 0.0126; in series [11], 0.0084. For the same molecule, the “fu,PL (in words)” value in series [11] (examples of Fig. 3c, individual PL beads and mixed beads) is recorded as “intermediate”.
Turning to `Cc1ccccc1N1C(=O)c2cc(S(N)(=O)=O)c(Cl)cc2NC1C` (centres unmarked) [Metolazone], the fraction unbound at 4 h, 0.5 μM was determined as 0.226 in series [1]; 0.445 in series [2]; 0.133 in [3]; 0.144 in series [4]; 0.416 in series [5]; 0.485 in series [6]. In addition, the fraction unbound at 4 h, 0.5 μM amounted to 0.37 in series [7] and 0.0709 in series [12]. Also, the fraction unbound at 15 min in series [8] worked out at 0.0059; in series [9], 0.0093; in series [10] it was 0.0085; in series [11] it was 0.0069.
Turning to `CC(C)n1c(/C=C/C(O)CC(O)CC(=O)O)c(-c2ccc(F)cc2)c2ccccc21` (centres unmarked) [Fluvastatin], the fraction unbound at 4 h, 0.5 μM is 0.0403 in [1]; 0.0569 in [2]; 0.0245 in [3]; 0.0389 in series [4]; 0.0161 in series [5]; 0.0838 in series [6]. For the same molecule, the fraction unbound at 4 h, 0.5 μM in series [7] is 0.0338. Moreover, the fraction unbound at 15 min amounted to 0.001 in [8], 0.0034 in series [9], 0.0067 in series [10] and 0.002 in series [11].
Consider `COc1ccc2[nH]c([S+]([O-])Cc3ncc(C)c(OC)c3C)nc2c1` (centres unmarked) [Omeprazole], for which the fraction unbound at 4 h, 0.5 μM in series [1] came to 0.463; in [2] it was 0.223; in series [3], 0.181; in series [4], 0.238; in series [5], 0.232; in series [6], 0.419. Further, the fraction unbound at 4 h, 0.5 μM in [7] worked out at 0.255; in series [12], 0.161. The fraction unbound at 15 min in series [8] came to 0.0203; in series [9] it was 0.0154; in series [10], 0.0131; in [11] it was 0.0237.
`CCN(CC)CCCC(C)Nc1ccnc2cc(Cl)ccc12` (centres unmarked) [Chloroquine]: the fraction unbound at 4 h, 0.5 μM in series [1] turned out to be 0.0824; in [3], 0.0777; in [4] it was 0.0783; in series [5], 0.0793; in series [6] it was 0.356; in [7], 0.176. Further, in [12], the fraction unbound at 4 h, 0.5 μM was 0.0824. Moreover, the fraction unbound at 15 min was found to be 0.0014 in series [8], 0.0006 in [9], 0.0032 in series [10] and 0.0044 in series [11].
On to `CCOc1nc2cccc(C(=O)O)c2n1Cc1ccc(-c2ccccc2-c2nnn[nH]2)cc1` [Candesartan], for which the fraction unbound at 4 h, 0.5 μM in [1] was determined as 0.246; in series [2] it was 0.205; in [3] it was 0.0945; in series [4] it was 0.118; in series [5], 0.103; in series [6] it was 0.948. For the same molecule, the fraction unbound at 4 h, 0.5 μM in series [7] was determined as 0.0968; in series [12], 0.247. In addition, the fraction unbound at 15 min is 0.0174 in [8], 0.0018 in series [9], 0.0055 in series [10] and 0.0081 in [11].
As to `Nc1ccc(/N=N/c2ccccc2)c(N)n1` [Phenazopyridine], the fraction unbound at 4 h, 0.5 μM in [1] stood at 0.0208; in [2], 0.0438; in [3], 0.0118; in series [4], 0.0078; in series [5] it was 0.0085; in series [6], 0.0348. The fraction unbound at 4 h, 0.5 μM amounted to 0.0215 in series [7] and 0.0014 in series [12]. For the same molecule, the fraction unbound at 15 min in series [8] was found to be 0.0005; in series [9], 0.0006; in series [10], 0.0019; in series [11], 0.0004.
In the case of `OC(Cn1cncn1)(Cn1cncn1)c1ccc(F)cc1F` [Fluconazole], the fraction unbound at 4 h, 0.5 μM in series [1] is 0.1; in [2], 0.646; in [3], 0.456; in series [4] it was 0.159; in series [5] it was 0.159; in series [6], 1. Besides, the results for the fraction unbound at 4 h, 0.5 μM in [7] and in [12] were 0.229 and 0.737, respectively. For the same molecule, the fraction unbound at 15 min came out at 0.0428 in series [8], 0.0045 in [9], 0.0081 in [10] and 0.028 in series [11].
For the molecule `COCCc1ccc(OCC(O)CNC(C)C)cc1` (centres unmarked) [Metoprolol], the fraction unbound at 4 h, 0.5 μM in series [1] stood at 0.0906; in series [2] it was 0.339; in series [3], 0.174; in [4], 0.34; in [5], 0.0881; in [6], 1. For the same molecule, the fraction unbound at 4 h, 0.5 μM turned out to be 0.202 in series [7] and 0.374 in series [12]. Moreover, the fraction unbound at 15 min in [8] was 0.0101; in series [9] it was 0.0081; in series [10], 0.0099; in [11] it was 0.0148.
`CCC(C)(C)C(=O)O[C@H]1C[C@@H](C)C=C2C=C[C@H](C)[C@H](CC[C@@H]3C[C@@H](O)CC(=O)O3)[C@H]21` [Simvastatin]: the fraction unbound at 4 h, 0.5 μM in series [1] is 0.0015; in series [2], 0.0023; in [4], 0.0009; in series [5] it was 0.0002; in series [6] it was 0.0032. Moreover, the fraction unbound at 15 min was 0.001 in series [8], 0.0001 in series [9], 0.0001 in series [10] and 0.0001 in series [11].
For `Cn1c(=O)c2c(ncn2C)n(C)c1=O` [Caffeine], the fraction unbound at 4 h, 0.5 μM came out at 0.248 in [1]; 0.115 in series [4]; 0.0398 in series [5]; 0.214 in series [6]; 0.0593 in series [7]; 0.248 in [12]. Moreover, the fraction unbound at 15 min in series [8] was 0.0096; in series [9], 0.0025; in series [10], 0.0154; in [11], 0.0145.
